# Laboratory results reported in patent publication US8452543B2, “High throughput screening for antimicrobial dosing regimens” (priority 2005, dated 2013).
# Values joined by “and” are separate entries in the source; they are usually repeats but may differ in a detail not shown here. Equal entries are not always repeated.
# What was measured:
# [1] = system: P. aeruginosa ATCC 27853; assay: Hollow fiber infection model, gentamicin; format: cell-based, Pseudomonas aeruginosa; conditions: Cmax/MIC of 30 every 12 h
# Procedure: The media plates were incubated at 35° C. for up to 24 (total population) and 72 hours (sub-populations with reduced susceptibility), then bacterial density from each sample was enumerated visually. The theoretical lower limit of detection was 400 CFU/ml.
# [2] = system: S. aureus ATCC 29213 and clinical isolates 55, 60, 25, 62; assay: Time-kill studies and pharmacodynamic modeling, gentamicin; format: cell-based, Staphylococcus aureus
# Procedure: Time-kill studies were conducted with different and escalating meropenem concentrations. […] An overnight culture of the isolate was diluted 30-fold with pre-warmed Ca-MHB and incubated further at 35 8 C until reaching late log phase growth. The bacterial suspension was diluted with Ca-MHB accordingly based on absorbance at 630 nm; 15 mL of the suspension was transferred to 50 mL sterile conical flasks each containing 1 mL of an antimicrobial agent solution at 16 the target concentration. The final concentration of the bacterial suspension in each flask was 1×10^8 cfu/mL. The high inoculum used was to simulate the bacterial load in severe infection, and to allow resistant sub-population(s) to be present at baseline. The experiment was conducted for 24 h in a shaker water bath set at 35 8 C. Serial samples in duplicate were obtained from each flask over 24 h, at 0 (baseline), 2, 4, 8, 12, and 24 h, to characterize the effect of various meropenem concentrations on the total bacterial population. Prior to culturing the bacteria quantitatively, the bacterial samples (0.5 mL) were centrifuged at 10000 g for 15 min, and reconstituted with sterile normal saline to their original volumes in order to minimize drug carry-over effect. Total bacterial populations were quantified by spiral plating 10 serial dilutions of the samples ([…]) onto MHA plates. The media plates were incubated in a humidified incubator (35 8 C) for 18-24 h, and the bacterial density from each sample was determined by CASBA-4 colony scanner/software (Spiral Biotech, Bethesda, Md., USA).
# In contrast to the conventional approach in which the final observed effects are modelled, information over time was utilized to develop a dynamic model system that would capture bacterial growth/killing rates. The starting point was a mathematical model describing the time course of bacterial burden [biological response, N(t)] under the influence of various antimicrobial agent concentrations C(t). The rate of change of bacteria over time was expressed as the difference between the intrinsic bacterial growth rate and the kill rate provided by the antimicrobial agent (Eq. 35). Based on previous studies, a linear bacterial growth rate was adopted. Additional model parameters were used to account for other physiological phenomena such as contact inhibition (using a maximum population size) and non-linear (sigmoidal) kill rate to account for target site saturation. Regrowth was attributed to adaptation, which was explicitly modelled as increase in the concentration necessary to achieve 50% maximal kill rate (C50k), using a saturable function of antimicrobial agent selective pressure (both meropenem concentration and time) (Eq. 36).
# Time-kill modeling was performed for S. Aureus and gentamicin as for P. aeruginosa according to procedures and dynamic growth modeling in Examples 2-3.
# [3] = system: S. aureus ATCC 29213 and clinical isolates 55, 60, 25, 62; assay: MIC/MBC of S. aureus isolates to gentamicin; format: cell-based, Staphylococcus aureus
# Procedure: Minimum inhibitory concentration (MIC)/minimum bactericidal concentration (MBC) were determined in Ca-MHB using a modified macrobroth dilution method as described by the CLSI (10). The final concentration of bacteria in each macrobroth dilution tube was approximately 5×10^5 cfu/ml of Ca-MHB. […] Samples (50 μl) from clear tubes and the cloudy tube with the highest drug concentration were plated on Mueller-Hinton agar (MHA) plates (Hardy Diagnostics, Santa Maria, Calif.). […] Drug carry-over effect was assessed by visual inspection of the distribution of colonies on media plates. The studies were conducted in duplicate and repeated at least once on a separate day. […]
# [4] = system: gentamicin resistant P. aeruginosa isolates; conditions: after serial passage on drug-free plates and storage at −70° C.
# [5] = system: S. aureus ATCC 29213; assay: Hollow-fiber infection model, gentamicin; format: cell-based, Staphylococcus aureus
# Procedure: The computer simulations were compared to experimental data from an in-vitro hollow fiber infection model with similar antimicrobial agent exposures (20). Basically the drug was injected directly into the central reservoir to achieve the peak concentration desired. Fresh (drug-free) growth medium (Ca-MHB) was continuously infused from the diluent reservoir into the central reservoir to dilute the drug in order to simulate drug elimination in humans. […] Bacteria were inoculated into the extracapillary compartment of the hollow-fiber cartridge (Fibercell Systems, Inc., Frederick, Md.); they are confined in the extracapillary compartment, but are exposed to the fluctuating drug concentration in the central reservoir by means of an internal circulatory pump in the bioreactor loop. The optional absorption compartment of the system was not used.
# [6] = system: P. aeruginosa ATCC 27853; assay: Time-kill studies and best-fit model, gentamicin; format: cell-based, Pseudomonas aeruginosa; conditions: PA 27853
# Procedure: A clinical relevant concentration range of gentamicin (from 0-32 mg/l) was used. […] The data were used as inputs to derive the best-fit model parameter estimates, as previously described (24, 17). The baseline inoculum (10^7 CFU/ml) was deemed to be dense enough to constitute a heterogeneous bacterial population. […] In Table 5: PA—P. aeruginosa, AB—A. baumannii, Kg—growth rate constant for bacterial population, Nmax—maximum population size, Kk—maximal kill rate constant for bacterial population, C50k—concentration to achieve 50% of maximal kill rate for bacterial population, H—sigmoidicity constant for bacterial population, β—maximal adaptation, and τ—rate of adaptation factor.
# [7] = system: amikacin resistant A. baumannii isolates; assay: Resistance confirmation, repeat susceptibility testing, amikacin; format: cell-based, Acinetobacter baumannii; conditions: amikacin resistant isolates
# [8] = system: P. aeruginosa ATCC 27853; assay: MIC/MBC, modified macrobroth dilution; format: cell-based, Pseudomonas aeruginosa; conditions: P. aeruginosa isolate (PA 27853)
# Procedure: The final concentration of bacteria in each macrobroth dilution tube was approximately 5×10^5 cfu/ml of Ca-MHB. Serial twofold dilutions of meropenem were used. […] Samples (50 μl) from clear tubes and the cloudy tube with the highest drug concentration were plated on Mueller-Hinton agar (MHA) plates (Hardy Diagnostics, Santa Maria, Calif.). […] Drug carry-over effect was assessed by visual inspection of the distribution of colonies on media plates. The studies were conducted in duplicate and repeated at least once on a separate day.
substance,measurement,setting,value
gentamicin,microbial response,[1],Sustained suppression of resistance emergence was achieved
same,C50K,[2]; S. aureus strain 25,3.18 mg/L
same,H,[2]; S. aureus strain 25,1.27
same,β,[2]; S. aureus strain 25,"9,952"
same,τ,[2]; S. aureus strain 25,0.33 µL/min/mg
same,C50K,[2]; S. aureus strain 55,2.58 mg/L
same,H,[2]; S. aureus strain 55,1.07
same,β,[2]; S. aureus strain 55,166.5
same,τ,[2]; S. aureus strain 55,29.7 µL/min/mg
same,C50K,[2]; S. aureus strain 60,1.05 mg/L
same,H,[2]; S. aureus strain 60,1.52
same,β,[2]; S. aureus strain 60,427.9
same,τ,[2]; S. aureus strain 60,46.2 µL/min/mg
same,C50K,[2]; S. aureus strain 62,0.65 mg/L
same,H,[2]; S. aureus strain 62,1.61
same,β,[2]; S. aureus strain 62,336.2
same,τ,[2]; S. aureus strain 62,119 µL/min/mg
same,C50K,[2]; S. aureus strain ATCC 29213,5.14 mg/L
same,H,[2]; S. aureus strain ATCC 29213,0.75
same,β,[2]; S. aureus strain ATCC 29213,"14,620"
same,τ,[2]; S. aureus strain ATCC 29213,1.83 µL/min/mg
same,concentrations beyond which the rate of killing seemed to plateau,[2]; all five S. aureus isolates,4 to 8 times the MIC
same,bactericidal activity,[2]; gentamicin concentration increased from 0.5 to 4 times the MIC,concentration dependent
same,MBC,[3]; S. aureus strain 25,2 μ/mL
same,MIC,[3]; S. aureus strain 25,1 μ/mL
same,MBC,[3]; S. aureus strain 55,2 μ/mL
same,MIC,[3]; S. aureus strain 55,0.5 μ/mL
same,MBC,[3]; S. aureus strain 60,2 μ/mL
same,MIC,[3]; S. aureus strain 60,1 μ/mL
same,MBC,[3]; S. aureus strain 62,1/1 μ/mL
same,MIC,[3]; S. aureus strain 62,1/1 μ/mL
same,MBC,[3]; S. aureus strain ATCC 29213,2 μ/mL
same,MIC,[3]; S. aureus strain ATCC 29213,1 μ/mL
same,stability of resistance,[4],not stable
same,microbiologic response with repeated dosing,[5]; 3-times-daily dosing regimen,sustained bacterial suppression over 5 days
same,killing at 24 h,"[5]; both dosing regimens (once daily and 3 times daily, identical daily doses)",approximately 5 log
same,microbiologic response with repeated dosing,"[5]; once-daily dosing regimen, over the next 4 days",regrowth was apparent
same,C50k,[6],0.72 mg/L
same,H,[6],3.73
same,Kk,[6],4.68 h⁻¹
same,β,[6],42.54
same,τ,[6],225 µL/min/mg
same,cross-resistance,[7],observed
same,MBC,[8],2 mg/l and 2/2 mg/l
same,MIC,[8],2 mg/l and 2/2 mg/l
